This is an account of results in ChEMBL document CHEMBL3632585, “Probing the S2' Subsite of the Anthrax Toxin Lethal Factor Using Novel N-Alkylated Hydroxamates” (J Med Chem, 2015).

The target in test [1] is T1, Lethal factor (Bacillus anthracis, UniProt P15917).
T1 sequence (P15917 whole entry): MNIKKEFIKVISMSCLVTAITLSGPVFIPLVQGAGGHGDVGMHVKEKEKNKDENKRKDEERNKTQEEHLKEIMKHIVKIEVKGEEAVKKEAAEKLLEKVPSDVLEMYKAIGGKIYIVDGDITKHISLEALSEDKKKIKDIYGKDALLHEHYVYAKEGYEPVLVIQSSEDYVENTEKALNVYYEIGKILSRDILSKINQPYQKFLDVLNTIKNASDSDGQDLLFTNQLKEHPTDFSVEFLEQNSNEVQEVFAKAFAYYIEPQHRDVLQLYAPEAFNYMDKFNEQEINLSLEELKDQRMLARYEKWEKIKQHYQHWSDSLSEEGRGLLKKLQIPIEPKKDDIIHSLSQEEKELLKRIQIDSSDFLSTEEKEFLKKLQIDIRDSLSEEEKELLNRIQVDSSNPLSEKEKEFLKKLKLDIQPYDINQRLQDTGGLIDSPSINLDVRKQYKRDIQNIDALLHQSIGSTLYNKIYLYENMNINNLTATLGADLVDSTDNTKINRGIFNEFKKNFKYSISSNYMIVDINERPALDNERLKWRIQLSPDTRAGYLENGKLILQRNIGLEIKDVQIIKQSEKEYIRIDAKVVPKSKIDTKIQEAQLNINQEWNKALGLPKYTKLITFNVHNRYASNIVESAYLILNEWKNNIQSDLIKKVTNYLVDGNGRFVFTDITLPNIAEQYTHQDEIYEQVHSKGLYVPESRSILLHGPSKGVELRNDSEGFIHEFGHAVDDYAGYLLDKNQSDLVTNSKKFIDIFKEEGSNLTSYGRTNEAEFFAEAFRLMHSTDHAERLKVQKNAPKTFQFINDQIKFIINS
Nature of the test: Inhibition of Bacillus anthracis Lethal factor after 5 mins by FRET assay.

Test [2] concerns the target T1, Lethal factor. Nature of the test: Inhibition of Bacillus anthracis Lethal factor after 10 mins by mobility shift protease assay using 8 uM FITC as substrate.

The structures appear in SMILES notation. Some results are limits rather than exact numbers.

In the case of `Cc1cc(S(=O)(=O)N(Cc2cccc(CN)c2)[C@H](C)C(=O)NO)ccc1F`, the IC50 against Lethal factor [1] turned out to be 10 µM; on Lethal factor [2], 1.7 µM.
The like results for `CC(=O)NCCCN([C@H](C)C(=O)NO)S(=O)(=O)c1ccc(F)c(C)c1` were, in that order, 117 µM and 30 µM.
On to `Cc1cc(S(=O)(=O)N(Cc2ccc(CN)cc2)[C@H](C)C(=O)NO)ccc1F`, for which the IC50 was determined as 5.6 µM at Lethal factor [1] and 1.3 µM on Lethal factor [2].
The corresponding values for `Cc1cc(S(=O)(=O)N(Cc2ccc(CNC(=O)OC(C)(C)C)cc2)[C@H](C)C(=O)NO)ccc1F` are 15 µM and 3.4 µM.
With `CC(=O)Nc1cccc(CN([C@H](C)C(=O)NO)S(=O)(=O)c2ccc(F)c(C)c2)c1`, the IC50 turned out to be 21 µM on Lethal factor [1] and 4.8 µM at Lethal factor [2].
With `Cc1cc(S(=O)(=O)N(CCCCCCCC(=O)O)[C@H](C)C(=O)NO)ccc1F`, the IC50 at Lethal factor [1] turned out to be 91 µM; on Lethal factor [2] it was 47 µM.
Turning to `Cc1cc(S(=O)(=O)N(C(C)C)[C@H](C)C(=O)NO)ccc1F`, the IC50 on Lethal factor [1] and at Lethal factor [2] was greater than 100 µM each time.
Regarding `Cc1cc(S(=O)(=O)N(CCCCCN)[C@H](C)C(=O)NO)ccc1F`, the IC50 against Lethal factor [1] was 8.2 µM; at Lethal factor [2] it was 1.3 µM.
As for `CC(=O)NCCCCCCN([C@H](C)C(=O)NO)S(=O)(=O)c1ccc(F)c(C)c1`, the IC50 at Lethal factor [1] is 14 µM; on Lethal factor [2], 3.9 µM.
`Cc1cc(S(=O)(=O)N(Cc2ccc(CCNC(=O)OC(C)(C)C)cc2)[C@H](C)C(=O)NO)ccc1F`: the values for the IC50 against Lethal factor [1] and on Lethal factor [2] were 6.9 µM and 2.1 µM, respectively.
Take `Cc1cc(S(=O)(=O)N(CCCCN)[C@H](C)C(=O)NO)ccc1F`: the values for the IC50 against Lethal factor [1] and at Lethal factor [2] were 7.4 µM and 1.8 µM, respectively.
For `Cc1cc(S(=O)(=O)N(C)[C@H](C)C(=O)NO)ccc1F`, the results for the IC50 against Lethal factor [1] and on Lethal factor [2] were 37 µM and 9.6 µM, respectively.
On to `CC(=O)NCc1ccc(CN([C@H](C)C(=O)NO)S(=O)(=O)c2ccc(F)c(C)c2)cc1`, for which the figures for the IC50 against Lethal factor [1] and at Lethal factor [2] were 16 µM and 3.5 µM, respectively.
`CNC(=O)CCCCCCCN([C@H](C)C(=O)NO)S(=O)(=O)c1ccc(F)c(C)c1`: the figures for the IC50 against Lethal factor [1] and on Lethal factor [2] were 19 µM and 9.3 µM, respectively.
Take `Cc1cc(S(=O)(=O)N(Cc2ccccc2F)[C@H](C)C(=O)NO)ccc1F`: the IC50 against Lethal factor [1] is 33 µM; on Lethal factor [2], 9.5 µM.
In the case of `Cc1cc(S(=O)(=O)N(Cc2ccc(CCN)cc2)[C@H](C)C(=O)NO)ccc1F`, the IC50 against Lethal factor [1] was 8.9 µM; on Lethal factor [2] it was 1.2 µM.
The corresponding values for `CC(=O)NCc1cccc(CN([C@H](C)C(=O)NO)S(=O)(=O)c2ccc(F)c(C)c2)c1` are 15 µM and 4.7 µM.
Regarding `Cc1cc(S(=O)(=O)N(Cc2cc(F)cc(F)c2)[C@H](C)C(=O)NO)ccc1F`, the IC50 came out at 26 µM on Lethal factor [1] and 7 µM on Lethal factor [2].
The like results for `Cc1cc(S(=O)(=O)N(CCOCc2ccccc2)[C@H](C)C(=O)NO)ccc1F` were, in that order, 57 µM and 14 µM.
Consider `Cc1cc(S(=O)(=O)N(Cc2ccc(N)cc2)[C@H](C)C(=O)NO)ccc1F`, for which the IC50 against Lethal factor [1] was determined as 29 µM; on Lethal factor [2] it was 6.4 µM.
The like results for `Cc1cc(S(=O)(=O)N(Cc2ccc(F)cc2)[C@H](C)C(=O)NO)ccc1F` were, in that order, 29 µM and 11 µM.
Regarding `CC(=O)NCCCCCN([C@H](C)C(=O)NO)S(=O)(=O)c1ccc(F)c(C)c1`, the half-maximal inhibitory concentration (IC50) against Lethal factor [1] was 19 µM; at Lethal factor [2], 4.3 µM.
As for `Cc1cc(S(=O)(=O)N(CCCCCCCC(=O)OC(C)(C)C)[C@H](C)C(=O)NO)ccc1F`, the figures for the half-inhibitory concentration (IC50) on Lethal factor [1] and on Lethal factor [2] were 8 µM and 3.2 µM, respectively.
The like results for `CC(=O)NCCc1ccc(CN([C@H](C)C(=O)NO)S(=O)(=O)c2ccc(F)c(C)c2)cc1` were, in that order, 17 µM and 3.2 µM.
Consider `Cc1cc(S(=O)(=O)N[C@H](C)C(=O)NO)ccc1F`, for which the IC50 at Lethal factor [1] is 1.6 µM; on Lethal factor [2], 0.5 µM.
Regarding `Cc1cc(S(=O)(=O)N(CCCN)[C@H](C)C(=O)NO)ccc1F`, the IC50 on Lethal factor [1] came to 12 µM; on Lethal factor [2], 3.7 µM.
On to `Cc1cc(S(=O)(=O)N(Cc2c(F)cccc2F)[C@H](C)C(=O)NO)ccc1F`, for which the IC50 is 42 µM against Lethal factor [1] and 13 µM on Lethal factor [2].
As to `Cc1cc(S(=O)(=O)N(CCCCCCN)[C@H](C)C(=O)NO)ccc1F`, the IC50 on Lethal factor [1] came out at 4.4 µM; on Lethal factor [2], 1.1 µM.
